Measured values reported in patent US20110086089A1, “USE OF P27KIP1 FOR THE PREVENTION AND TREATMENT OF HEART FAILURE” (UNIVERSITY HEALTH NETWORK, priority 2008, published 2011).

Columns and labels:
[1] = test system: p27 degradation in cardiomyocytes; assay: Ang II-triggered p27 degradation / p27 half-life in cardiomyocytes; assay type: cell-based, rat; conditions: for Ang II-triggered decrease in p27 protein levels / p27 destabilization: cardiomyocytes + Ang II, lactacystin 10 μM 30 min pre-treatment, DMAT 30 minutes prior, lentivirus 72 h; for p27 degradation: proteasome inhibitors, conditions not given
Experimental: FIG. 3 is a series of graphs, blots and cell stainings showing essential function of CK2-alpha-prime-mediated p27 degradation for cardiomyocyte hypertrophy. […] Cells were transduced with TAT-conjugated wt.p27 (2.5 μg/ml), phosphorylation resistant p27deltaPi, or phosphomimicking mutant p27.S83D/T187D for 1 h before Ang II addition for 4 h. Isotypic anti-CK2-alpha-prime immunocomplex kinase assays were performed employing histone H1 substrate. Input levels of transduced TAT-fusion proteins were determined prior to Ang II addition by immunoblotting of total cell extracts. Mean±s.e.m., n=3. *P<0.01 vs unstimulated cells. **P<0.01 vs Ang II. #P<0.01. endog, endogenous. (B) Pharmacological inhibition of the 26S-proteasome abrogates Ang II-triggered p27 degradation. […] Alternatively, lactacystin-treated cardiomyocytes were transduced with TAT-conjugated CK2-alpha-prime or p27deltaPi (2.5 μg/ml) for 1 h prior to Ang II addition. Anti-CK2-alpha-prime immunocomplex kinase assays were performed employing histone H1 as substrate. Western blots of total cell extracts (50 μg/lane) were probed with antibodies as indicated on the left. (C) Inhibition of CK2-alpha-prime prevents Ang II-induced degradation of p27. […] Cells were then chased with excess cold methionine in the presence of Ang II and cycloheximide (100 μg/ml) to block protein synthesis for the indicated timepoints. Alternatively, cells were incubated with DMAT for 30 minutes prior to Ang II stimulation. p27 was immunoprecipitated employing anti-p27 covalently linked to protein A-agarose. Aliquots of total cell extracts were resolved on SDS-PAGE, transferred to nitrocellulose-membranes, autoradiographed (right panel), and quantified with ImageJ software (left panel). (B, C) One typical result of two independent experiments is shown. (D) Subcellular localization of p27 and S83 phosphorylated p27 in Ang II-stimulated cardiomyocytes. Cells were transduced with lentiviruses encoding siCK2-alpha-prime or siControl for 72 h prior to Ang II treatment for the indicated timepoints. […] De novo protein synthesis was determined by in vivo labeling of cardiomyocytes with [^35S]methionine (right panel). Cell size was determined by indirect immunofluorescence microscopy employing anti-tropomyosin staining and ImageJ. Expression levels of endogenous CK2-alpha-prime and p27 were determined by immunoblotting of total cell extracts employing specific antibodies as indicated. Ectopic SR.CK2-alpha-prime and SR.p27 were detected using anti-His. […]
For metabolic labeling, cardiomyocytes were pulsed-labeled with 100 μCi/ml [^35S]methionine/cysteine (1000 Ci/mmol; EasyTag, NEN) for 2 h in methionine/cysteine-deficient medium (DME, ICN). […] The amount of incorporated radioactive label was determined with ImageJ software. […]

[2] = test system: p27 phosphorylation at S83 and T187 in cardiomyocytes; assay: p27 phosphorylation at S83 and T187 in Ang II-treated cardiomyocytes (Western blot); assay type: cell-based, rat; conditions: Ang II 4 h; lentiviruses 72 h; DMAT 20 μM pre-incubated 30 min; TAT-conjugated CK2-alpha-prime 2.5 μg/ml 1 h
Experimental: FIG. 2 is a series of graphs and blots showing Ang II triggers CK2-alpha-prime-dependent phosphorylation of p27 on S83 and T187 in cardiomyocytes. (A) p27 is a substrate of CK2-alpha-prime. […] In vitro kinase assays employing recombinant wt.p27 (1 μg) or phosphorylation site mutants of p27 as substrates were incubated with recombinant CK2-alpha-prime/beta (200 ng). Aliquots of the reaction mixtures were resolved on SDS-PAGE, electrotransferred to nitrocellulose membranes, and the amount of incorporated radioactive [^32P}-label into p27 was quantified with a PhosphorImager and ImageJ software. Individual membranes were probed with anti-CK2-alpha-prime, anti-p27 (input), or phosphorylation site specific antibodies to p27. […] Samples were resolved on SDS-PAGE, transferred to nitrocellulose-membranes, and the amount of incorporated radioactive label into histones was quantified with a PhosphorImager and ImageJ. The input amount of each CK2-alpha-prime and p27 protein used in the kinase reaction mixtures was monitored by immunoblot analysis employing anti-His. […] Biochemically fractionated extracts corresponding to 4×10^5 cells per lane were analyzed by immunoblotting employing antibodies as indicated on the left. […]

WT mice = assay: Reversal of established Ang II-dependent cardiac hypertrophy (16 days infusion, injections from day 8); assay type: in vivo; conditions: daily i.p. injections 20 mg/kg initiated at day 8
Excerpt: FIG. 10 is the experimental treatment protocol. To examine the therapeutic effect of p27 on established cardiac hypertrophy, p27 injections were initiated at 8 days after Ang II-infusion.
To examine the effect of transduced p27 on established cardiac hypertrophy, mice were chronically infused with Ang II for 16 days and intraperitoneally injected recombinant TAT-conjugated p27ΔPi and beta-galactosidase (β-Gal) proteins starting from day 8. After 16 days of Ang II-infusion, the heart/body weight ratio were increased by 45% compared to saline-infused controls (FIG. 11B; group 7 vs. group 6). […] Transduced p27ΔPi regressed the increase in heart size by 47% as compared to β-Gal control injections (group 3 vs group 4). In Ang II-infused mice treated with p27ΔPi values of left ventricular posterior wall and interventricular septum thickness, LVEDD, LVESD, FS and EF were not significant different compared to saline-infused mice. Thus, p27 can reverse established compensated cardiac hypertrophy without exerting any deleterious effect on cardiac function.
Spontaneously beating cardiomyocytes from heart ventricles of neonatal rats were cultured and subjected to treatment with angiotensin II (Ang II). DMAT (2-dimethylamino-4,5,6,7-tetrabromo-1H-benzimidazol), DMSO, lactacystin and LLM were obtained from Calbiochem. Ang II was purchased from Sigma. Animal usage was in accordance with approved institutional animal care guidelines. Age-matched male WI C57BL/6 and p27^−/− mice were used in this study. For results shown in FIGS. 1 to 9: Ang II was chronically infused subcutaneously by osmotic pumps (model 2000, Alzet) at a dose of 1.4 μg/kg per minute for 14 days. TAT.proteins (10 mg/kg) were injected intraperitoneally once daily for 14 days. For results shown in FIGS. 10 to 12: Ang II was chronically infused subcutaneously by osmotic pumps (model 2000, Alzet) at a dose of 0.7 μg/kg per minute for 16 days. TAT.proteins (20 mg/kg) were injected intraperitoneally once daily for 8 days starting at day 8. Thoracic aortic banding (TAB) and pressure gradient measurements were performed as described^39.
After fixation in paraformaldehyde (4% in PBS, pH 7.4), a transverse midsection (3 μm thickness) was stained with Alexa Fluor® 488-conjugated wheat germ agglutinin for cross sectional measurements. Cardiomycoyte area was determined by planimetry employing ImageJ software. A total of 200 cells were counted in each group.

For `CN(C)c1nc2c(Br)c(Br)c(Br)c(Br)c2[nH]1` [DMAT, 2-dimethylamino-4,5,6,7-tetrabromo-1H-benzimidazol, reference compound], the “Ang II-triggered decrease in p27 protein levels / p27 destabilization” value [1] was “prevented p27 destabilization” and the “S83/T187 phosphorylation of p27 in cardiomyocytes” value [2] was “abolished”.

In the case of `CC(C)C[C@H](NC(=O)[C@H](Cc1ccccc1)NC(=O)c1cnccn1)B(O)O` [PS-341], the p27 degradation [1] is reported as “inhibit p27 degradation”.

With `CC(=O)N[C@@H](CSC(=O)[C@]1([C@@H](O)C(C)C)NC(=O)[C@H](C)[C@@H]1O)C(=O)O` [lactacystin] the “Ang II-triggered decrease in p27 protein levels / p27 destabilization” value [1] was “sensitive to proteasome inhibition”.

In the case of “TAT-β-Gal: recombinant TAT-conjugated beta-galactosidase, control injections”, the Heart weight (WT mice; Ang II infusion 16 days (0.7 μg/kg per minute)) is reported as 159 ± 7.3 mg, the FS (WT mice; Ang II infusion 16 days) is reported as 44 ± 1.6 % and the Heart weight/body weight (WT mice; Ang II infusion 16 days) is reported as 6.9 ± 0.2 mg/g. For the same compound, the IVSD (WT mice; Ang II infusion 16 days) was 1.4 ± 0.1 mm, the LVEDD (WT mice; Ang II infusion 16 days) was 3.8 ± 0.1 mm and the LVEF (WT mice; Ang II infusion 16 days) was 78 ± 3.7 %. For the same compound, the LVESD (WT mice; Ang II infusion 16 days) was 2.7 ± 0.2 mm and the PWD (WT mice; Ang II infusion 16 days) was 1.4 ± 0.1 mm.

With alpha-methylomuralide the p27 degradation [1] was “inhibit p27 degradation”.
